Measured values from a compilation of properties of binary mixtures (doi:10.1016/j.molliq.2011.09.019).

Assay: xn = mol fraction of the nth substance listed
Settings: 101 kPa

With `CS(C)=O` + CC(=O)[O-].CC[NH2+]CC as the compound, how does the speed of sound (298.15 K, x1 = 1) read?
The speed of sound was 1496 m/s.

What about the viscosity (298.15 K, x1 = 1) of the same compound?
Its viscosity is 1.99 mPa·s.

And the speed of sound (303.15 K, x1 = 1)?
Its speed of sound is 1472 m/s.

And the viscosity (303.15 K, x1 = 1)?
The viscosity was 1.79 mPa·s.

What about the speed of sound (308.15 K, x1 = 1) of the same compound?
The speed of sound was 1460 m/s.

And the viscosity (308.15 K, x1 = 1)?
The viscosity was 1.65 mPa·s.

For `CC(=O)[O-].CC[NH2+]CC` + CS(C)=O, which speed of sound (298.15 K, x1 = 0.0144) is on record?
Its speed of sound is 1500 m/s.

What about the viscosity (298.15 K, x1 = 0.0144) of the same compound?
Its viscosity is 2.24 mPa·s.

What about the speed of sound (298.15 K, x2 = 0) of the same compound?
The speed of sound was 1608 m/s.

And the viscosity (298.15 K, x2 = 0)?
The viscosity was 16.36 mPa·s.

And the speed of sound (298.15 K, x2 = 0.0253)?
The speed of sound was 1606 m/s.

What about the viscosity (298.15 K, x2 = 0.0253) of the same compound?
The viscosity was 16.01 mPa·s.

What about the speed of sound (298.15 K, x2 = 0.0627) of the same compound?
The speed of sound was 1604 m/s.

What about the viscosity (298.15 K, x2 = 0.0627) of the same compound?
The viscosity was 15.5 mPa·s.

And the speed of sound (298.15 K, x2 = 0.1132)?
Its speed of sound is 1601 m/s.

And the viscosity (298.15 K, x2 = 0.1132)?
Its viscosity is 14.83 mPa·s.

And the speed of sound (298.15 K, x2 = 0.1535)?
Its speed of sound is 1599 m/s.

And the viscosity (298.15 K, x2 = 0.1535)?
Its viscosity is 14.29 mPa·s.

And the speed of sound (298.15 K, x2 = 0.2458)?
Its speed of sound is 1597 m/s.

And the viscosity (298.15 K, x2 = 0.2458)?
Its viscosity is 13.11 mPa·s.

What about the speed of sound (298.15 K, x2 = 0.3244) of the same compound?
Its speed of sound is 1596 m/s.

And the viscosity (298.15 K, x2 = 0.3244)?
Its viscosity is 12.13 mPa·s.

What about the speed of sound (298.15 K, x2 = 0.3701) of the same compound?
Its speed of sound is 1595 m/s.

What about the viscosity (298.15 K, x2 = 0.3701) of the same compound?
Its viscosity is 11.56 mPa·s.

What about the speed of sound (298.15 K, x2 = 0.4864) of the same compound?
Its speed of sound is 1593 m/s.

What about the viscosity (298.15 K, x2 = 0.4864) of the same compound?
Its viscosity is 10.09 mPa·s.

And the speed of sound (298.15 K, x2 = 0.7253)?
The speed of sound was 1572 m/s.

And the viscosity (298.15 K, x2 = 0.7253)?
Its viscosity is 6.74 mPa·s.

What about the speed of sound (298.15 K, x2 = 0.8406) of the same compound?
Its speed of sound is 1546 m/s.

And the viscosity (298.15 K, x2 = 0.8406)?
Its viscosity is 4.91 mPa·s.

And the speed of sound (298.15 K, x2 = 0.8923)?
The speed of sound was 1532 m/s.

And the viscosity (298.15 K, x2 = 0.8923)?
The viscosity was 3.98 mPa·s.

What about the speed of sound (298.15 K, x2 = 0.9248) of the same compound?
The speed of sound was 1522 m/s.

And the viscosity (298.15 K, x2 = 0.9248)?
Its viscosity is 3.39 mPa·s.

What about the speed of sound (298.15 K, x2 = 0.956) of the same compound?
The speed of sound was 1513 m/s.

What about the viscosity (298.15 K, x2 = 0.956) of the same compound?
Its viscosity is 2.81 mPa·s.

What about the speed of sound (303.15 K, x1 = 0.0144) of the same compound?
Its speed of sound is 1478 m/s.

What about the viscosity (303.15 K, x1 = 0.0144) of the same compound?
The viscosity was 2.04 mPa·s.

And the speed of sound (303.15 K, x2 = 0)?
Its speed of sound is 1604 m/s.

And the viscosity (303.15 K, x2 = 0)?
The viscosity was 13.64 mPa·s.

And the speed of sound (303.15 K, x2 = 0.0627)?
Its speed of sound is 1599 m/s.

What about the viscosity (303.15 K, x2 = 0.0627) of the same compound?
The viscosity was 12.96 mPa·s.

And the speed of sound (303.15 K, x2 = 0.1132)?
Its speed of sound is 1597 m/s.

What about the viscosity (303.15 K, x2 = 0.1132) of the same compound?
Its viscosity is 12.44 mPa·s.

What about the speed of sound (303.15 K, x2 = 0.1535) of the same compound?
The speed of sound was 1595 m/s.

And the viscosity (303.15 K, x2 = 0.1535)?
The viscosity was 12.02 mPa·s.

What about the speed of sound (303.15 K, x2 = 0.2023) of the same compound?
Its speed of sound is 1594 m/s.

And the viscosity (303.15 K, x2 = 0.2023)?
The viscosity was 11.54 mPa·s.

What about the speed of sound (303.15 K, x2 = 0.2458) of the same compound?
The speed of sound was 1593 m/s.

And the viscosity (303.15 K, x2 = 0.2458)?
The viscosity was 11.1 mPa·s.

What about the speed of sound (303.15 K, x2 = 0.2814) of the same compound?
The speed of sound was 1592 m/s.

What about the viscosity (303.15 K, x2 = 0.2814) of the same compound?
The viscosity was 10.73 mPa·s.

And the speed of sound (303.15 K, x2 = 0.3244)?
Its speed of sound is 1591 m/s.

What about the viscosity (303.15 K, x2 = 0.3244) of the same compound?
The viscosity was 10.28 mPa·s.

What about the speed of sound (303.15 K, x2 = 0.3701) of the same compound?
The speed of sound was 1590 m/s.

And the viscosity (303.15 K, x2 = 0.3701)?
Its viscosity is 9.82 mPa·s.

What about the speed of sound (303.15 K, x2 = 0.4864) of the same compound?
The speed of sound was 1582 m/s.

And the viscosity (303.15 K, x2 = 0.4864)?
Its viscosity is 8.64 mPa·s.

And the speed of sound (303.15 K, x2 = 0.5897)?
The speed of sound was 1572 m/s.

What about the viscosity (303.15 K, x2 = 0.5897) of the same compound?
Its viscosity is 7.51 mPa·s.

And the speed of sound (303.15 K, x2 = 0.66)?
The speed of sound was 1564 m/s.

What about the viscosity (303.15 K, x2 = 0.66) of the same compound?
The viscosity was 6.72 mPa·s.

What about the speed of sound (303.15 K, x2 = 0.7851) of the same compound?
Its speed of sound is 1540 m/s.

What about the viscosity (303.15 K, x2 = 0.7851) of the same compound?
The viscosity was 5.17 mPa·s.

And the speed of sound (303.15 K, x2 = 0.8923)?
The speed of sound was 1512 m/s.

What about the viscosity (303.15 K, x2 = 0.8923) of the same compound?
Its viscosity is 3.67 mPa·s.

And the speed of sound (303.15 K, x2 = 0.956)?
The speed of sound was 1491 m/s.

What about the viscosity (303.15 K, x2 = 0.956) of the same compound?
Its viscosity is 2.61 mPa·s.

What about the speed of sound (303.15 K, x2 = 0.971) of the same compound?
The speed of sound was 1485 m/s.

What about the viscosity (303.15 K, x2 = 0.971) of the same compound?
Its viscosity is 2.32 mPa·s.

What about the speed of sound (308.15 K, x1 = 0.0144) of the same compound?
The speed of sound was 1469 m/s.

What about the viscosity (308.15 K, x1 = 0.0144) of the same compound?
The viscosity was 1.9 mPa·s.

And the speed of sound (308.15 K, x2 = 0)?
The speed of sound was 1599 m/s.

And the viscosity (308.15 K, x2 = 0)?
The viscosity was 11.83 mPa·s.

And the speed of sound (308.15 K, x2 = 0.0253)?
The speed of sound was 1594 m/s.

What about the viscosity (308.15 K, x2 = 0.0253) of the same compound?
The viscosity was 11.6 mPa·s.

What about the speed of sound (308.15 K, x2 = 0.0627) of the same compound?
Its speed of sound is 1594 m/s.

What about the viscosity (308.15 K, x2 = 0.0627) of the same compound?
The viscosity was 11.27 mPa·s.

And the speed of sound (308.15 K, x2 = 0.1132)?
The speed of sound was 1592 m/s.

And the viscosity (308.15 K, x2 = 0.1132)?
The viscosity was 10.86 mPa·s.

What about the speed of sound (308.15 K, x2 = 0.2023) of the same compound?
Its speed of sound is 1589 m/s.

And the viscosity (308.15 K, x2 = 0.2023)?
The viscosity was 10.14 mPa·s.

And the speed of sound (308.15 K, x2 = 0.2458)?
The speed of sound was 1588 m/s.

And the viscosity (308.15 K, x2 = 0.2458)?
Its viscosity is 9.76 mPa·s.

What about the speed of sound (308.15 K, x2 = 0.3244) of the same compound?
Its speed of sound is 1584 m/s.

And the viscosity (308.15 K, x2 = 0.3244)?
Its viscosity is 9.1 mPa·s.

And the speed of sound (308.15 K, x2 = 0.3701)?
Its speed of sound is 1582 m/s.

What about the viscosity (308.15 K, x2 = 0.3701) of the same compound?
The viscosity was 8.7 mPa·s.

And the speed of sound (308.15 K, x2 = 0.4864)?
The speed of sound was 1574 m/s.

And the viscosity (308.15 K, x2 = 0.4864)?
Its viscosity is 7.69 mPa·s.

What about the speed of sound (308.15 K, x2 = 0.5897) of the same compound?
The speed of sound was 1562 m/s.

What about the viscosity (308.15 K, x2 = 0.5897) of the same compound?
Its viscosity is 6.74 mPa·s.

What about the speed of sound (308.15 K, x2 = 0.66) of the same compound?
Its speed of sound is 1554 m/s.

And the viscosity (308.15 K, x2 = 0.66)?
Its viscosity is 6.08 mPa·s.

And the speed of sound (308.15 K, x2 = 0.7253)?
Its speed of sound is 1544 m/s.

What about the viscosity (308.15 K, x2 = 0.7253) of the same compound?
Its viscosity is 5.4 mPa·s.

And the speed of sound (308.15 K, x2 = 0.7851)?
Its speed of sound is 1530 m/s.

What about the viscosity (308.15 K, x2 = 0.7851) of the same compound?
The viscosity was 4.77 mPa·s.

And the speed of sound (308.15 K, x2 = 0.8406)?
Its speed of sound is 1516 m/s.

What about the viscosity (308.15 K, x2 = 0.8406) of the same compound?
Its viscosity is 4.11 mPa·s.

What about the speed of sound (308.15 K, x2 = 0.8923) of the same compound?
Its speed of sound is 1502 m/s.

What about the viscosity (308.15 K, x2 = 0.8923) of the same compound?
Its viscosity is 3.45 mPa·s.

And the speed of sound (308.15 K, x2 = 0.9248)?
The speed of sound was 1490 m/s.

What about the viscosity (308.15 K, x2 = 0.9248) of the same compound?
The viscosity was 2.95 mPa·s.

What about the speed of sound (308.15 K, x2 = 0.956) of the same compound?
Its speed of sound is 1480 m/s.

And the viscosity (308.15 K, x2 = 0.956)?
Its viscosity is 2.48 mPa·s.

What about the speed of sound (308.15 K, x2 = 0.971) of the same compound?
The speed of sound was 1474 m/s.

And the viscosity (308.15 K, x2 = 0.971)?
The viscosity was 2.18 mPa·s.
